The record followed here is patent publication US20130252930A1 (BIOMARIN PHARMACEUTICAL INC., priority 2010, published 2013).

Each structure is given as a SMILES string. Read-outs that look alike come from different tables or passages of the source.

The nature of data set [1]: Rat liver microsome stability assay (Biological Example 8a). To be noted: liver microsomes, pH 7.4.
Protocol: Each test compound (1.5 μM, 30 μL) was incubated with rat (BD Gentest, Cat No. 452501) or human (BD Gentest, Cat No. 452161) liver microsomes (0.75 mg/mL, 0.1 M potassium phosphate buffer, 1.0 mM EDTA, pH 7.4) in 96 well plates. The reaction was started with addition of excess NADPH (5 mg/mL, 15 μL in 0.1 M potassium phosphate buffer, 1.0 mM EDTA, pH 7.4), the total volume is 45 μL (compound final concentration was 1 μM). The incubations were terminated at time zero and at 5, 15, 30, and 60 minutes by addition of 135 μL/excess ACN containing internal standard (1S). After quenching, the reaction mixtures was centrifuged (Eppendorf Centrifuge 5810R) at 3220×g for 10 min (4° C.). 50 μL of the supernatant was transferred from each well into a 96-well sample plate containing 50 μL of ultra-pure water (Millipore) for LC-MS/MS analysis. The half-life T1/2=0.693/K (K is the rate constant from a plot of log [concentration] vs. incubation time) was calculated.
Data set [2] addresses T1, Human C17,20-lyase (microsomal fraction from human testis) (Homo sapiens, UniProt P05093).
T1 construct: using microsomal fraction from human testis (Celsis Cat #S00110) as the enzyme source; tissue Celsis S00110; host or cells: human testis microsomal fraction
T1 sequence (P05093 1-508): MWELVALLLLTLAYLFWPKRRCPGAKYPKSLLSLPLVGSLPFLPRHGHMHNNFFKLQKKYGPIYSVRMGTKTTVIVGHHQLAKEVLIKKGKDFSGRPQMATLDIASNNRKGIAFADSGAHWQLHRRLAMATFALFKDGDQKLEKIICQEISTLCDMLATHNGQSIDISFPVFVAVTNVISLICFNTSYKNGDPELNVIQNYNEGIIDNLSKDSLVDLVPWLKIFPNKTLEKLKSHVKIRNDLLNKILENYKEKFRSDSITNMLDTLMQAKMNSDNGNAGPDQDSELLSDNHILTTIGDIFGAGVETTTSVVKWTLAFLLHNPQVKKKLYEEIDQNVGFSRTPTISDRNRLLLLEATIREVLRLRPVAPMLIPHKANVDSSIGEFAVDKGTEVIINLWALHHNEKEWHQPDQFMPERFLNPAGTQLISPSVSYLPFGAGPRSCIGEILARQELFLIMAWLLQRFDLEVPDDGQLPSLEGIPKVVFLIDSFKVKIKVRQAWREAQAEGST
Kind of data set: CYP17 enzymatic assay (% inhibition at 10 nM), version 2 (Biological Example 6). In kind it is biochemical. Particulars: method: tested at 100 nM; human testis microsome, radiometric. How it is done:
Human C17,20-lyase enzymatic assays were conducted in 200 μL volume in Eppendorf tubes, using microsomal fraction from human testis (Celsis Cat #S00110) as the enzyme source. Total protein concentration of the microsomal fraction is estimated to be 20 mg/ml. Prior to adding the microsomal fractions, reaction mixtures containing 50 mM NaPO4 buffer (pH 7.4), 1 mM MgCl2, 0.1 mM EDTA, 0.1 mM dithiothreitol, 0.5 mM NADPH, 4 μM 17α-hydroxypregnenolone, 1 μL of [21-^3H]-17α-hydroxypregnenolone (American Radiolabeled Chemicals, ART #1663, Specific activity=50-60 Ci/mmol), and the appropriate testing compounds were incubated for 5 minutes in a 37° C. shaking water bath (150 rpm). Following the 5-minute pre-incubation, 5 μL of human testis microsome was added to each of the reaction mixtures (except for the Negative Controls, which received 5 μL of H2O). After 30-minute incubation at 37° C. in shaking water bath (150 rpm), reactions were stopped by addition of 200 μL of cold chloroform and vigorous shaking for 30 minutes. Tubes were centrifuged at 1,500×g for 15 minutes at 4° C., and the aqueous phase was transferred to fresh Eppendorf tubes. Forty microliters (40 μL) of 8.5% charcoal (Sigma Cat #C6241) suspension was added to each tube, mixed well and incubated at 4° C. for 30 minutes. Tubes were centrifuged at 1,500×g for 15 minutes at 4° C., and 100 μL upper layer from each tube was transferred into each well of a 96-well isoplate (PerkinElmer Cat #6005040). Finally, 100 μL of Optiphase supermix scintillation fluid (PerkinElmer Cat #1200430) was added to each well, mixed by pippeting up and down 3 times. Radioactivity was measured with MicroBeta Trilux Counter using tritium program.
All testing compounds were dissolved and diluted in methanol. Two microliters (2 μL) of the properly diluted test compound was added to each reaction to reach the desired concentration. In Negative control (no enzyme activity) and Activity control (100% enzyme activity), 2 μL of methanol was added. Each data point was tested in duplicate. […]
For compounds of further interest, IC50 value was generated by measuring the inhibition rate at 5 concentrations and using Prism software under “non-linear regression analysis.”

The target in data set [3] is T2, CYP17 (human testicular microsome) (Homo sapiens, UniProt P05093).
T2 construct: using microsomal fraction from human testis (Celsis Cat #S00110) as the enzyme source; tissue Celsis S00110; host or cells: human testis microsomal fraction
T2 sequence (P05093 1-508): T1 sequence (P05093 1-508)
Kind of data set: CYP17 enzymatic assay (IC50) (Biological Example 4). Format: biochemical. To be noted: human testicular microsome, DHEA by ELISA; read-out: Biological Example No. 4: CYP17 enzymatic assay IC50.

A short description of data set [4]: Human liver microsome stability assay (Biological Example 8b). Particulars: liver microsomes, pH 7.4. In general terms: Microsomes from liver hold many membrane-bound enzymes, among them those of drug oxidation.
Protocol: (§1) The reaction was started with addition of excess NADPH (5 mg/mL, 15 μL in 0.1 M potassium phosphate buffer, 1.0 mM EDTA, pH 7.4), the total volume is 45 μL (compound final concentration was 1 μM). […] 50 μL of the supernatant was transferred from each well into a 96-well sample plate containing 50 μL of ultra-pure water (Millipore) for LC-MS/MS analysis.
Data set [5] can be described thus: in vitro. Particulars: human, microsomes, pH 7.4.
Protocol: as §1
Data set [6] concerns the target T3, Cyp21 enzyme (Human HEK 293-Cyp21 stable transfected cells) (Homo sapiens, UniProt P08686).
T3 construct: expressed in transfected cells
T3 sequence (P08686 1-495): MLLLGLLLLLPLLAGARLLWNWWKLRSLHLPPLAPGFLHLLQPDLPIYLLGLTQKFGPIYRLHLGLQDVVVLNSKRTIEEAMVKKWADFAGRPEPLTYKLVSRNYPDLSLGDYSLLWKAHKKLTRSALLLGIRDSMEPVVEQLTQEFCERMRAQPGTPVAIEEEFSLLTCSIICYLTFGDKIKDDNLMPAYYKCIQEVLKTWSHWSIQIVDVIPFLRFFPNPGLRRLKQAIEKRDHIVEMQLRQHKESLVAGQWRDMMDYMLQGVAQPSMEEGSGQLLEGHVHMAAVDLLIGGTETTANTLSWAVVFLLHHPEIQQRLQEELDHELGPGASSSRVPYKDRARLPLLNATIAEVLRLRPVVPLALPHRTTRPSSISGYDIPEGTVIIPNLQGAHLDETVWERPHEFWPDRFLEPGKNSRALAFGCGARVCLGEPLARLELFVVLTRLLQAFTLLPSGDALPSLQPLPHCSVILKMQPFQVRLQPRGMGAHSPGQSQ
Kind of data set: CYP21-HEK293 enzymatic assay (% inhibition at 100 nM) (Biological Example 10). Particulars: HEK 293-Cyp21 cells. Format: cell-based. The procedure, abridged: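 HEK293 cells stably expressing human Cyp21 in DMEM + 10% FBS got compound (100 nM reported) for 5 h at 37 °C; 1% methanol served as mock. Progesterone substrate (final 10 μM) was then added for 20 h. DOC in the medium was measured by competitive ELISA (OD 450 nm) against a standard curve.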

For data set [7], the target named is T2, CYP17 (human testicular microsome). In words: CYP17 enzymatic assay (% inhibition at 1 nM) (Biological Example 12). In kind it is biochemical.
In data set [8] the test system is rat Cyp11B enzyme (rat adrenal mitochondria). Kind of data set: CYP11B enzymatic assay (% inhibition at 100 nM) (Biological Example 9). In kind it is biochemical. To be noted: compound at 100 nM. The procedure, abridged:
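Sprague Dawley rat adrenal mitochondria were incubated with compound at 100 nM, 0.5 mM NADPH and 0.1 μM 11-deoxycortisol (pH 7.4 Tris buffer) for 60 min at 37 °C. Cortisol was measured by ELISA and corrected by subtracting the no-NADPH background. % inhibition is relative to the no-compound reaction.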

The target of data set [9] is T2, CYP17 (human testicular microsome). In words: CYP17 enzymatic assay (% inhibition at 10 nM), version 1 (Biological Example 5). To be noted: 10 nM compound, DHEA by ELISA, read-out: Biological Example No. 5: CYP17 percent inhibition at 10 nM (version 1). In kind it is biochemical.
Where [10] appears, read: compound at 1 nM, read-out: CYP17 enzymatic assay % inhibition at 1 nM (Biological Example No. 12).

A word on the half-life: it is how long it takes for the measured level to halve. Lower therefore signals rapid decline. What is called IC50 is the point on the concentration scale where inhibition reaches its midpoint. The term inhibition denotes how much of the control response was suppressed.

In the case of `C[C@]12CCC(=O)OC[C@@H]1CC[C@@H]1[C@@H]2CC[C@]2(C)C(c3cccnc3)=CC[C@@H]12` [Compound 113, (1S,12S,16S,2R,8R,11R)-2,16-dimethyl-15-(3-pyridyl)-6-oxatetracyclo[9.7.0.0^2,8.0^12,16]octadec-14-en-5-one], the half-life at 1 μM is 10 to 60 min in [1] and 1 to 50 min in [4]. Further, the “Biological Example No. 6: CYP17 percent inhibition (version 2)” value in [2] is “F (F means the compound had a percent inhibition of greater than or equal to 38%)”. For the same molecule, in data set [3], the IC50 was less than 11 nM.

For `C[C@]12CCC3C(CCN4C(=O)CC=CC[C@]34C)C1CC=C2c1cccnc1` (stereo partly drawn) [Compound 34, (11aR,13aS)-11a,13a-dimethyl-1-(pyridin-3-yl)-3b,4,5,8,11,11a,11b,12,13,13a-decahydro-3H-azepino[2,1-a]cyclopenta[f]isoquinolin-7(3aH)-one], the half-life at 1 μM in [1] lay in the range of 1 to 10 min. Further, in [2], the “Biological Example No. 6: CYP17 percent inhibition (version 2)” value is given as “F (F means the compound had a percent inhibition of greater than or equal to 38%)”.

For the molecule `COc1cncc(C2=CC[C@H]3[C@@H]4CC[C@H]5COC(=O)CC[C@]5(C)[C@H]4CC[C@]23C)c1` [Compound 115, (1S,12S,16S,2R,8R,11R)-15-(5-methoxy(3-pyridyl))-2,16-dimethyl-6-oxatetracyclo[9.7.0.0^2,8.0^12,16]octadec-14-en-5-one], in data set [2], the “Biological Example No. 6: CYP17 percent inhibition (version 2)” value is recorded as “F (F means the compound had a percent inhibition of greater than or equal to 38%)”.

For the molecule `CCNC(=O)NC1CC[C@@]2(C)C(=CCC3C2CC[C@]2(C)C(n4ccnc4)=CCC32)C1` (stereo partly drawn) [Compound 242, 1-((10R,13S)-17-(1H-imidazol-1-yl)-10,13-dimethyl-2,3,4,7,8,9,10,11,12,13,14,15-dodecahydro-1H-cyclopenta[a]phenanthren-3-yl)-3-ethylurea], the half-life at 1 μM in data set [5] was in the range of 1 to 50 min. Moreover, the inhibition at 0.1 µM in data set [6] (compound at 100 nM, read-out: CYP21-HEK293 enzymatic assay % inhibition at 100 nM (Biological Example No. 10)) was less than 30%. The inhibition at 0.001 µM in [7] (setting [10]) was greater than 50%. Moreover, the “CYP11B enzymatic assay % inhibition at 100 nM (Biological Example No. 9)” value in [8] is listed as “U (U means the compound had a percent inhibition of greater than or equal to 32%)”.

As to `CCOc1cncc(C2=CC[C@H]3[C@@H]4CC[C@H]5COC(=O)CC[C@]5(C)[C@H]4CC[C@]23C)c1` [Compound 117, (1S,12S,16S,2R,8R,11R)-15-(5-ethoxy(3-pyridyl))-2,16-dimethyl-6-oxatetracyclo[9.7.0.0^2,8.0^12,16]octadec-14-en-5-one], in data set [2], the “Biological Example No. 6: CYP17 percent inhibition (version 2)” value was “G (G means the compound had a percent inhibition of less than 38% but greater than or equal to 3%)”.

On to `C[C@@]1(O)CC[C@@]2(C)C(=CCC3C2CC[C@]2(C)C(c4cncc(F)c4)=CCC32)C1` (stereo partly drawn) [Compound 269, (3R,10R,13S)-17-(5-fluoropyridin-3-yl)-3,10,13-trimethyl-2,3,4,7,8,9,10,11,12,13,14,15-dodecahydro-1H-cyclopenta[a]phenanthren-3-ol], for which the half-life at 1 μM in data set [5] is greater than 50 min. The inhibition at 0.001 µM in data set [7] (test compound at 1 nM, read-out: CYP17 enzymatic assay percent inhibition at 1 nM (Biological Example No. 12)) is greater than 50%.

In turn, `CC(=O)N[C@@H]1CC[C@@]2(C)C(=CC[C@@H]3[C@@H]2CC[C@]2(C)C(c4cncc(C(F)(F)F)c4)=CC[C@@H]32)C1` [Compound 231, N-((3R,10R,13S)-10,13-dimethyl-17-(5-(trifluoromethyl)pyridin-3-yl)-2,3,4,7,8,9,10,11,12,13,14,15-dodecahydro-1H-cyclopenta[a]phenanthren-3-yl)acetamide] came in with a half-life at 1 μM in data set [5] of 1 to 50 min. Moreover, the inhibition at 0.001 µM in data set [7] (setting [10]) was 10 to 50%.

The molecule `COc1cncc(C2=CCC3C4CCC5C[C@H](NC(C)=O)CC[C@]5(C)C4CC[C@]23C)c1` (stereo partly drawn) [Compound 222, N-((3R,10S,13S)-17-(5-methoxypyridin-3-yl)-10,13-dimethyl-2,3,4,5,6,7,8,9,10,11,12,13,14,15-tetradecahydro-1H-cyclopenta[a]phenanthren-3-yl)acetamide] yielded a half-life at 1 μM in data set [5] of 1 to 50 min. In addition, in data set [7] (setting [10]), the inhibition at 0.001 µM was greater than 50%.

In the case of `C[C@]12CCC3C(CCN4C(=O)C=CCC[C@]34C)C1CC=C2c1cccnc1` (stereo partly drawn) [Compound 35, (11aR,13aS)-11a,13a-dimethyl-1-(pyridin-3-yl)-3b,4,5,10,11,11a,11b,12,13,13a-decahydro-3H-azepino[2,1-a]cyclopenta[f]isoquinolin-7(3aH)-one], the “Biological Example No. 6: CYP17 percent inhibition (version 2)” value in data set [2] is “F (F means the compound had a percent inhibition of greater than or equal to 38%)”.

In data set [5], `COc1cncc(C2=CC=C3[C@@H]4CCC5=CC(=O)CC[C@]5(C)[C@H]4CC[C@]23C)c1` [Compound 83, (10R,13S)-17-(5-methoxypyridin-3-yl)-10,13-dimethyl-6,7,8,9,10,11,12,13-octahydro-1H-cyclopenta[a]phenanthren-3(2H)-one] gave a half-life at 1 μM of 1 to 50 min. For the same molecule, the inhibition at 0.01 µM in data set [9] was 50 to 80%. In addition, in [6] (100 nM compound, read-out: Biological Example No. 10: CYP21-HEK293 percent inhibition at 100 nM), the inhibition at 0.1 µM was no less than 30%.
